Assay results reported in ChEMBL document CHEMBL1201862, “PubChem BioAssay data set” (2004).
Where “and” joins values, the source holds several entries; their conditions need not be identical. Equal entries are not always repeated.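 Exposure lasted 48 hours, with cells grown in 96-well plates and compounds tested at five concentrations. At the GI50, growth is halved.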 Calls of active or inactive are those of the source. Rule as the data show it: active = GI50 up to about 1.1 µM and inactive = higher.

Assays:
Experiment in all cases: DTP human tumour cell line panel, 48 h
786-0 = tested on: 786-0
A498 = tested on: A498
A549 = tested on: A549
ACHN = tested on: ACHN
BT-549 = tested on: BT-549
CCRF-CEM = tested on: CCRF-CEM
DU-145 = tested on: DU-145
EKVX = tested on: EKVX
HCT-15 = tested on: HCT-15
HL-60 = tested on: HL-60
HOP-62 = tested on: HOP-62
HOP-92 = tested on: HOP-92
HT-29 = tested on: HT-29
Hs-578T = tested on: Hs-578T
IGROV-1 = tested on: IGROV-1
K562 = tested on: K562
KM12 = tested on: KM12
LOX IMVI = tested on: LOX IMVI
M14 = tested on: M14
MCF7 = tested on: MCF7
MDA-MB-435 = tested on: MDA-MB-435
MOLT-4 = tested on: MOLT-4
Malme-3M = tested on: Malme-3M
NCI-H226 = tested on: NCI-H226
NCI-H23 = tested on: NCI-H23
NCI-H460 = tested on: NCI-H460
OVCAR-3 = tested on: OVCAR-3
OVCAR-5 = tested on: OVCAR-5
OVCAR-8 = tested on: OVCAR-8
PC-3 = tested on: PC-3
RPMI-8226 = tested on: RPMI-8226
RXF 393 = tested on: RXF 393
SF-268 = tested on: SF-268
SF-295 = tested on: SF-295
SF-539 = tested on: SF-539
SK-MEL-28 = tested on: SK-MEL-28
SK-MEL-2 = tested on: SK-MEL-2
SK-MEL-5 = tested on: SK-MEL-5
SK-OV-3 = tested on: SK-OV-3
SN12C = tested on: SN12C
SNB-19 = tested on: SNB-19
SNB-75 = tested on: SNB-75
SR = tested on: SR
SW-620 = tested on: SW-620
T47D = tested on: T47D
TK-10 = tested on: TK-10
U-251 = tested on: U-251
UACC-257 = tested on: UACC-257
UO-31 = tested on: UO-31
CAKI-1 = tested on: CAKI-1
COLO 205 = tested on: COLO 205
HCC 2998 = tested on: HCC 2998
HCT-116 = tested on: HCT-116
MDA-MB-231 = tested on: MDA-MB-231
MDA-N = tested on: MDA-N
NCI/ADR-RES = tested on: NCI/ADR-RES
OVCAR-4 = tested on: OVCAR-4
UACC-62 = tested on: UACC-62
NCI-H522 = tested on: NCI-H522

For CCOC(=O)C1C=C1C(C)(C)O (stereo unspecified), the GI50 (786-0) was > 10 µM (inactive), the GI50 (A498) was > 10 µM (inactive) and the GI50 (A549) was > 10 µM (inactive). The GI50 (ACHN) was > 10 µM (inactive), the GI50 (BT-549) was > 10 µM (inactive) and the GI50 (CCRF-CEM) was > 10 µM (inactive). The GI50 (DU-145) was > 10 µM (inactive), the GI50 (EKVX) was > 10 µM (inactive) and the GI50 (HCT-15) was > 10 µM. For the same compound, the GI50 (HL-60) was > 10 µM (inactive), the GI50 (HOP-62) was > 10 µM (inactive) and the GI50 (HOP-92) was > 10 µM (inactive). For the same compound, the GI50 (HT-29) was > 10 µM (inactive), the GI50 (Hs-578T) was > 10 µM (inactive) and the GI50 (IGROV-1) was > 10 µM (inactive). The GI50 (K562) was > 10 µM (inactive), the GI50 (KM12) was > 10 µM (inactive) and the GI50 (LOX IMVI) was > 10 µM (inactive). For the same compound, the GI50 (M14) was > 10 µM (inactive), the GI50 (MCF7) was > 10 µM (inactive) and the GI50 (MDA-MB-435) was > 10 µM (inactive). The GI50 (MOLT-4) was > 10 µM (inactive), the GI50 (Malme-3M) was > 10 µM (inactive) and the GI50 (NCI-H226) was > 10 µM (inactive). The GI50 (NCI-H23) was > 10 µM (inactive), the GI50 (NCI-H460) was > 10 µM (inactive) and the GI50 (OVCAR-3) was > 10 µM (inactive). The GI50 (OVCAR-5) was > 10 µM (inactive), the GI50 (OVCAR-8) was > 10 µM (inactive) and the GI50 (PC-3) was > 10 µM (inactive). The GI50 (RPMI-8226) was > 10 µM (inactive), the GI50 (RXF 393) was > 10 µM (inactive) and the GI50 (SF-268) was > 10 µM (inactive). The GI50 (SF-295) was > 10 µM (inactive), the GI50 (SF-539) was > 10 µM (inactive) and the GI50 (SK-MEL-28) was > 10 µM (inactive). For the same compound, the GI50 (SK-MEL-2) was > 10 µM (inactive), the GI50 (SK-MEL-5) was > 10 µM (inactive) and the GI50 (SK-OV-3) was > 10 µM (inactive). For the same compound, the GI50 (SN12C) was > 10 µM (inactive), the GI50 (SNB-19) was > 10 µM (inactive) and the GI50 (SNB-75) was > 10 µM (inactive). For the same compound, the GI50 (SR) was > 10 µM (inactive), the GI50 (SW-620) was > 10 µM (inactive) and the GI50 (T47D) was 7.24 µM (inactive). For the same compound, the GI50 (TK-10) was > 10 µM (inactive), the GI50 (U-251) was > 10 µM (inactive) and the GI50 (UACC-257) was > 10 µM (inactive). For the same compound, the GI50 (UO-31) was > 10 µM (inactive).

Cc1cc(C)c(N)c(CO)c1 was tested, and the GI50 (786-0) was > 100 µM (inactive), the GI50 (A549) was 42.8 µM (inactive) and 73.6 µM (inactive) and the GI50 (ACHN) was > 100 µM (inactive). The GI50 (BT-549) was > 100 µM (inactive), the GI50 (CAKI-1) was 4.25 µM (inactive) and 2.87 µM (inactive) and the GI50 (CCRF-CEM) was > 100 µM (inactive). The GI50 (COLO 205) was 36.2 µM (inactive) and 46.7 µM (inactive), the GI50 (DU-145) was > 100 µM (inactive) and the GI50 (EKVX) was > 100 µM (inactive) and 81.1 µM (inactive). The GI50 (HCC 2998) was 74.5 µM (inactive) and 71.1 µM (inactive), the GI50 (HCT-116) was 35.6 µM (inactive) and 19.3 µM (inactive) and the GI50 (HCT-15) was > 100 µM. The GI50 (HOP-62) was 38 µM (inactive) and > 53.5 µM (inactive), the GI50 (HOP-92) was > 59.2 µM (inactive) and the GI50 (Hs-578T) was > 100 µM (inactive). The GI50 (K562) was 59.8 µM (inactive) and 67.5 µM (inactive), the GI50 (KM12) was > 100 µM (inactive) and the GI50 (LOX IMVI) was > 100 µM (inactive). For the same compound, the GI50 (M14) was > 100 µM (inactive), the GI50 (MDA-MB-231) was > 100 µM (inactive) and the GI50 (MDA-MB-435) was > 100 µM (inactive). The GI50 (MDA-N) was > 100 µM (inactive), the GI50 (MOLT-4) was > 100 µM (inactive) and the GI50 (Malme-3M) was > 100 µM (inactive). For the same compound, the GI50 (NCI-H23) was > 100 µM (inactive), the GI50 (NCI-H460) was 46.7 µM (inactive) and 34 µM (inactive) and the GI50 (NCI/ADR-RES) was > 100 µM (inactive). The GI50 (OVCAR-3) was 32.7 µM (inactive) and 24.4 µM (inactive), the GI50 (OVCAR-4) was 78.9 µM (inactive) and 57.4 µM (inactive) and the GI50 (OVCAR-8) was > 100 µM (inactive). For the same compound, the GI50 (PC-3) was > 100 µM (inactive), the GI50 (RPMI-8226) was > 100 µM (inactive) and the GI50 (SF-268) was > 100 µM (inactive). For the same compound, the GI50 (SF-295) was > 73.6 µM (inactive) and > 74.8 µM (inactive), the GI50 (SF-539) was > 100 µM (inactive) and the GI50 (SK-MEL-28) was > 100 µM (inactive). For the same compound, the GI50 (SK-MEL-2) was > 100 µM (inactive), the GI50 (SK-MEL-5) was > 100 µM (inactive) and the GI50 (SK-OV-3) was > 100 µM (inactive). The GI50 (SN12C) was > 100 µM (inactive), the GI50 (SNB-19) was > 100 µM (inactive) and the GI50 (SNB-75) was > 100 µM (inactive). For the same compound, the GI50 (SR) was > 100 µM (inactive), the GI50 (SW-620) was > 88.3 µM (inactive) and 95.3 µM (inactive) and the GI50 (U-251) was 61.1 µM (inactive) and 56.1 µM (inactive). The GI50 (UACC-257) was 45.3 µM (inactive) and 58.5 µM (inactive), the GI50 (UACC-62) was 22.8 µM (inactive) and 13.2 µM (inactive) and the GI50 (UO-31) was > 100 µM (inactive) and 97.1 µM (inactive).

For COc1cc2c(cc1OC)C13CCN4CC5=CCOC(CC(=O)O)C(C5CC41)C3N2 (stereo unspecified), the GI50 (786-0) was > 100 µM (inactive), the GI50 (A498) was > 100 µM (inactive) and the GI50 (A549) was > 100 µM (inactive). The GI50 (ACHN) was > 100 µM (inactive), the GI50 (BT-549) was > 100 µM (inactive) and the GI50 (CAKI-1) was > 100 µM (inactive). For the same compound, the GI50 (CCRF-CEM) was 61.1 µM (inactive), the GI50 (COLO 205) was > 100 µM (inactive) and the GI50 (EKVX) was > 100 µM (inactive). The GI50 (HCT-116) was > 100 µM (inactive), the GI50 (HCT-15) was > 100 µM and the GI50 (HL-60) was > 100 µM (inactive). The GI50 (HOP-62) was > 100 µM (inactive), the GI50 (HOP-92) was 78.3 µM (inactive) and the GI50 (HT-29) was > 100 µM (inactive). The GI50 (Hs-578T) was > 100 µM (inactive), the GI50 (IGROV-1) was > 100 µM (inactive) and the GI50 (K562) was > 100 µM (inactive). The GI50 (KM12) was > 100 µM (inactive), the GI50 (LOX IMVI) was > 100 µM (inactive) and the GI50 (M14) was > 100 µM (inactive). For the same compound, the GI50 (MCF7) was > 100 µM (inactive), the GI50 (MDA-MB-231) was > 100 µM (inactive) and the GI50 (MDA-MB-435) was > 100 µM (inactive). The GI50 (MDA-N) was > 100 µM (inactive), the GI50 (MOLT-4) was > 100 µM (inactive) and the GI50 (Malme-3M) was > 100 µM (inactive). For the same compound, the GI50 (NCI-H226) was > 100 µM (inactive), the GI50 (NCI-H23) was > 100 µM (inactive) and the GI50 (NCI-H460) was > 100 µM (inactive). For the same compound, the GI50 (NCI-H522) was > 100 µM (inactive), the GI50 (NCI/ADR-RES) was > 100 µM (inactive) and the GI50 (OVCAR-3) was > 100 µM (inactive). For the same compound, the GI50 (OVCAR-4) was > 100 µM (inactive), the GI50 (OVCAR-5) was > 100 µM (inactive) and the GI50 (OVCAR-8) was > 100 µM (inactive). The GI50 (PC-3) was > 100 µM (inactive), the GI50 (RPMI-8226) was > 100 µM (inactive) and the GI50 (SF-268) was > 100 µM (inactive). The GI50 (SF-295) was > 100 µM (inactive), the GI50 (SF-539) was > 100 µM (inactive) and the GI50 (SK-MEL-28) was > 100 µM (inactive). The GI50 (SK-MEL-2) was > 100 µM (inactive), the GI50 (SK-MEL-5) was > 100 µM (inactive) and the GI50 (SK-OV-3) was > 100 µM (inactive). For the same compound, the GI50 (SN12C) was > 100 µM (inactive), the GI50 (SNB-19) was > 100 µM (inactive) and the GI50 (SR) was > 100 µM (inactive). The GI50 (SW-620) was > 100 µM (inactive), the GI50 (TK-10) was > 100 µM (inactive) and the GI50 (U-251) was > 100 µM (inactive). For the same compound, the GI50 (UACC-257) was > 100 µM (inactive), the GI50 (UACC-62) was > 100 µM (inactive) and the GI50 (UO-31) was > 100 µM (inactive).
